PubChem BioAssay AID328 (DTP/NCI, 2004)
Several values for one entry are separate records, joined by “and”; a condition that tells them apart may be missing. Equal values may be shown once. Inconclusive results and toxic doses are left out.

Tested on: BDF1 mice, P388 leukemia ip, median survival T/C
Assay: NCI In Vivo Anticancer Drug Screen. Data for tumor model P388 Leukemia (intraperitoneal) in B6D2F1 (BDF1) mice
Conditions: endpoint: median survival time, higher = longer survival
Method in brief: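 Steps: implant the tumour, treat one group with compound and another with vehicle, record survival, then divide treated by control.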

[1] = dose: 3.13 mg/kg/injection, schedule: Q01DX009 (ip), vehicle: saline with Tween-80
[2] = dose: 100.0 mg/kg/injection, schedule: Q01DX009 (ip), vehicle: saline
[3] = dose: 200.0 mg/kg/injection, schedule: Q01DX009 (ip), vehicle: saline
[4] = dose: 100.0 mg/kg/injection, schedule: Q04DX003 (ip), vehicle: Klucel (hydroxypropylcellulose) (HPC)
[5] = dose: 200.0 mg/kg/injection, schedule: Q04DX003 (ip), vehicle: Klucel (hydroxypropylcellulose) (HPC)
[6] = dose: 25.0 mg/kg/injection, schedule: Q01DX009 (ip), vehicle: saline with Tween-80
[7] = dose: 50.0 mg/kg/injection, schedule: Q01DX009 (ip), vehicle: saline with Tween-80

For `CC(C)=CCC1=C(OC2OC(CO)C(O)C(O)C2O)C(=O)c2ccccc2C1=O` (centres undefined), the T/C (dose: 1.56 mg/kg/injection, schedule: Q01DX009 (ip), vehicle: saline with Tween-80) was 123 % of control and the T/C [1] was 160 % of control.

For `O=C(C[n+]1ccccc1)N/N=C/c1ccc([N+](=O)[O-])s1`, the T/C (dose: 12.5 mg/kg/injection, schedule: Q01DX009 (ip), vehicle: water) was 114 % of control, the T/C (dose: 25.0 mg/kg/injection, schedule: Q04DX003 (ip), vehicle: water) was 90 % of control and the T/C (dose: 50.0 mg/kg/injection, schedule: Q04DX003 (ip), vehicle: water) was 104 % of control.

For `C=CC(=O)NCCCC(=O)O`, the T/C (dose: 50.0 mg/kg/injection, schedule: Q01DX009 (ip), vehicle: saline) was 94 % of control, the T/C [2] was 91 % of control and the T/C [3] was 100 % of control.

In the case of `O=C(c1ccccc1)c1cccc(Cl)c1`, the T/C (dose: 50.0 mg/kg/injection, schedule: Q04DX003 (ip), vehicle: Klucel (hydroxypropylcellulose) (HPC)) is reported as 104 % of control, the T/C [4] is reported as 90 % of control and the T/C [5] is reported as 104 % of control.

`c1ccc2c(c1)[nH]c1nc3ncncc3nc12` was tested, and the T/C (dose: 100.0 mg/kg/injection, schedule: Q04DX003 (ip), vehicle: saline) was 122 % of control, the T/C (dose: 200.0 mg/kg/injection, schedule: Q04DX003 (ip), vehicle: saline) was 100 % of control and the T/C (dose: 400.0 mg/kg/injection, schedule: Q04DX003 (ip), vehicle: saline) was 100 % of control.

`O=C(Nc1ccc([N+](=O)[O-])cc1)Nc1ccc([N+](=O)[O-])c(C(F)(F)F)c1` was tested, and the T/C (dose: 100.0 mg/kg/injection, schedule: Q01DX009 (ip), vehicle: saline with Tween-80) was 87 % of control, the T/C (dose: 110.0 mg/kg/injection, schedule: Q01DX009 (ip), vehicle: Klucel (hydroxypropylcellulose) (HPC)) was 105 % of control and 117 % of control and the T/C (dose: 170.0 mg/kg/injection, schedule: Q01DX009 (ip), vehicle: Klucel (hydroxypropylcellulose) (HPC)) was 121 % of control. For the same molecule, the T/C (dose: 200.0 mg/kg/injection, schedule: Q01DX009 (ip), vehicle: saline with Tween-80) was 95 % of control, the T/C (dose: 225.0 mg/kg/injection, schedule: Q01DX009 (ip), vehicle: Klucel (hydroxypropylcellulose) (HPC)) was 105 % of control and the T/C (dose: 400.0 mg/kg/injection, schedule: Q01DX009 (ip), vehicle: saline with Tween-80) was 100 % of control.

`CCC1OC(=O)CC(O)C(C)C(OC2OC(C)C(O)C(N(C)C)C2O)C(CC=O)CC(C)C(=O)/C=C/C2(C)OC2C1C` (centres undefined) was tested, and the T/C (dose: 150.0 mg/kg/injection, schedule: Q01DX009 (ip), vehicle: Klucel (hydroxypropylcellulose) (HPC)) was 92 % of control.

`CCOC(=O)CCC(=O)CC(O)(C(F)(F)F)C(F)(F)Cl` (centres undefined) was tested, and the T/C (dose: 100.0 mg/kg/injection, schedule: Q04DX003 (ip), vehicle: saline with Tween-80) was 100 % of control, the T/C (dose: 200.0 mg/kg/injection, schedule: Q04DX003 (ip), vehicle: saline with Tween-80) was 90 % of control and the T/C (dose: 400.0 mg/kg/injection, schedule: Q04DX003 (ip), vehicle: saline with Tween-80) was 95 % of control.

In the case of `O=C1OC2(CCCCC2)OC(=O)C1=C/C=C/c1ccc([N+](=O)[O-])o1`, the T/C [1] is reported as 100 % of control, the T/C (dose: 6.25 mg/kg/injection, schedule: Q01DX009 (ip), vehicle: saline with Tween-80) is reported as 98 % of control and the T/C (dose: 12.5 mg/kg/injection, schedule: Q01DX009 (ip), vehicle: saline with Tween-80) is reported as 91 % of control and 121 % of control. For the same molecule, the T/C [6] was 97 % of control and 99 % of control and the T/C [7] was 112 % of control.

For `Clc1cc(C(Cl)(Cl)Cl)ccc1C(Cl)(Cl)Cl`, the T/C (dose: 100.0 mg/kg/injection, schedule: Q01DX001 (ip), vehicle: saline with Tween-80) was 100 % of control, the T/C (dose: 200.0 mg/kg/injection, schedule: Q01DX001 (ip), vehicle: saline with Tween-80) was 104 % of control and the T/C (dose: 400.0 mg/kg/injection, schedule: Q01DX001 (ip), vehicle: saline with Tween-80) was 95 % of control.

For `BrCc1cc2ccccc2cc1CBr`, the T/C (dose: 25.0 mg/kg/injection, schedule: Q04DX003 (ip), vehicle: saline) was 116 % of control.

For `NC(N)=NCCCC(NC(=O)OCc1ccccc1)C(=O)O` (centres undefined), the T/C [4] was 100 % of control, the T/C [5] was 104 % of control and the T/C (dose: 400.0 mg/kg/injection, schedule: Q04DX003 (ip), vehicle: Klucel (hydroxypropylcellulose) (HPC)) was 100 % of control.

In the case of `CNCC(=O)NC(CO)C(=O)NC1C(C(N)=O)OC(n2ccc(N)nc2=O)C(O)C1O` (centres undefined), the T/C (dose: 0.75 mg/kg/injection, schedule: Q04DX003 (ip), vehicle: saline) is reported as 103 % of control, the T/C (dose: 1.5 mg/kg/injection, schedule: Q04DX003 (ip), vehicle: saline) is reported as 112 % of control and the T/C (dose: 3.0 mg/kg/injection, schedule: Q04DX003 (ip), vehicle: saline) is reported as 102 % of control.

`O=C(O)/C=C\C(=O)Nc1ccccc1NC(=O)/C=C/C(=O)O` was tested, and the T/C [2] was 104 % of control, the T/C [3] was 113 % of control and the T/C (dose: 400.0 mg/kg/injection, schedule: Q01DX009 (ip), vehicle: saline) was 109 % of control.

`NC(N)=NC(N)=Nc1ccc(Cl)c(Cl)c1` was tested, and the T/C [6] was 98 % of control and the T/C [7] was 121 % of control.
